Measured values reported in patent US20100234313A1, “STABILIZED MICRONISED PARTICLES” (priority 2007, published 2010).

Legend:
[1] = Particle size distribution and mean particle size (d4,3) by laser diffraction (LS230); type: physicochemical; conditions: for mean particle size (d4,3): non-ground product dispersed in water
Experimental: Measurements were carried out for the following organic compounds: natamycin (DSM Gist, Delft, the Netherlands), nystatin (DSM, Delft, the Netherlands), cocoa (Blooker Cocoa, Amsterdam, the Netherlands) and coffee (Douwe Egberts Coffee, Utrecht, the Netherlands). For natamycin two products each containing differently shaped natamycin particles were included in the example; a natamycin product comprising disc-shaped particles and a natamycin product comprising needle-shaped particles. Before use the coffee was filtered through a 150 μm sieve. Samples of the above organic compounds were dispersed in demineralised water until the light obscuration value, which was measured by Laser Diffraction technology using a Laser Diffraction Particle Size Analyzer LS230 from BeckmanCoulter, Fullerton, Calif., USA, was between 45% and 55%. […] Then, the particle size distribution was analysed with the device for 90 seconds. The device made use of a red laser and a tungsten lamp with wavelengths of 450, 600 and 900 nm to measure the particle size. The device required the refractive index of the liquid phase and the particles and the imaginary refractive index of the particles for determining the particle size distribution from the raw data. These values were manually entered into the measurement device (refractive index liquid: 1.33; refractive index natamycin: 1.6; nystatin: 1.6; cocoa: 2.0; coffee: 2.0; imaginary refractive index natamycin: 0.01; nystatin: 0.01; cocoa: 1.0; coffee: 1.0). From the particle size distribution the mean particle size was determined. The mean particle size provided by the measurement device was a volume based particle size, d4,3. The distribution per particle size range is given as a percentage of the total.
A buffer solution of pH 8 was made by mixing 13.75 ml citric acid solution of 0.1 mol/l with 486.25 ml sodium hydroxide solution of 0.2 mol/l. 25 g of disc-shaped natamycin (d4,3: 14.6 μm; DSM Gist, Delft, the Netherlands) was added to the buffer solution and the powder was dispersed by means of stirring. The grinding chamber (300 ml) of the ball mill (Dynomill KDL Special from Bachofen AG, Basel, Switzerland) was filled up to 75% (v/v) with 0.3 mm zirconium oxide beads stabilized with yttrium (Tosoh Corporation, Tokyo, Japan). The ball mill was operated at 2000 rotations per minute. The natamycin suspension was pumped through the ball mill at a flow rate of 6.1 g/s. The suspension that exited the ball mill was returned to the vessel containing the rest of the suspension. The suspension passed through the chamber of the ball mill multiple times during the grinding experiment. The residence time of the suspension in the grinding chamber and the vessel was 26.7 seconds and 59.4 seconds, respectively. Samples of the suspension exiting the mill were taken after 2, 5, 10, 20, 30, 45, 60, 75 and 90 minutes. The particle size in the suspension samples was measured for each sample by means of laser diffraction using the Laser Diffraction Particle Size Analyzer called LS230 from BeckmanCoulter (Fullerton, Calif., USA).
Disc-shaped natamycin powder was dispersed in water at a concentration of 3000 ppm. The mean particle size of the natamycin suspension was approximately 15 μm. The suspension was homogenized with a homogenizer (Panda 2K, ns100L, GEA NIRO SOAVI, Cell disrupter (R-type)) and a suspension comprising micronised natamycin particles was obtained. In Table 5 the mean particle size (d4,3) of the particles of the obtained suspension is shown as a function of homogenization pressure for a different number of homogenization cycles. […]
The experiment was essentially performed as for natamycin (see Example 2). […]

[2] = Sedimentation behaviour of suspensions (volume fraction below the sedimentation front); type: physicochemical
Experimental: In this experiment the stability of micronised and non-micronised natamycin suspensions was analyzed by observing the sedimentation behavior of the suspensions. A micronised natamycin suspension was prepared essentially as described in Example 2 with the proviso that the natamycin was suspended in demineralized water and the pH was not set. Next, a suspension with a final natamycin concentration of 1% (w/w) was prepared in an aqueous solution containing 0.01 M NaCl. The pH of samples of the suspension was set with 0.01 M NaOH and 0.01 M HCl. The samples of the suspension were stored and the pH was adjusted after 10 and 24 hours, if necessary. After 24 hours the pH of the samples of the suspension remained constant. Ten ml of each separate sample was placed in a plastic pipette (Ten ml sterile and disposable plastic pipette; inner diameter 7 mm; Bibby Sterilin Ltd. Stone, Staffordshire, United Kingdom) which was closed at both ends and stored vertically at 4° C. The sedimentation behavior of the samples was followed in time by measuring the volume above and below the sedimentation front within each pipette. In Table 7 the results are shown. The percentages indicate the volume fraction below the sedimentation front. […] This implies that the particles form sediment. The rate at which this occurs varies with pH. […]

[3] = Dissolution test, suspension diluted 70 times with water at room temperature; type: physicochemical; conditions: stirred
Experimental: A micronised natamycin suspension prepared essentially as described in Example 7 (with size smaller than 0.2 μm) was diluted 70 times with water at room temperature. The suspension was stirred. Samples were taken out after 5 seconds and then every 10 seconds. The particles were removed from the suspension by filtration with a 0.02 μm syringe-filter (Whatman International Ltd, England). The natamycin concentration of the remaining solution was measured with a spectrophotometer (Uvikon 933, Kontron Instruments). […] The solution reached saturation within 5 seconds (approximately 43 ppm natamycin in solution and solid particles remaining). The same test was repeated with non-grinded disc-shaped natamycin particles with a mean particle size of around 15 μm. In this case the saturation concentration was reached after approximately 2 hours.

[4] = system: Penicillium discolor PED1, CR1A and Penicillium discolor PED74, L1; test: Challenge test on coated Gouda cheese; type: cell-based
Experimental: To test the efficacy of micronised natamycin in a cheese application, an experiment was performed wherein the surface of fresh brined Gouda cheeses were challenged with Penicillium discolor strains and treated with formulations comprising natamycin with different particle sizes. The amount of mould spores that was able to germinate on the treated cheese surfaces are an indication of the anti-fungal activity of the natamycin analyzed. The cheeses (10 per natamycin particle type) were considered to be no longer protected by natamycin, when at least 50% of the cheeses analyzed had more than two growing colonies.
Cheeses were coated with a coating containing base polymer Craymul 4386 (Cray Valley, Brummen) and containing natamycin particles. Cheeses were then contaminated at day zero with Penicillium discolor PED1, CR1A and Penicillium discolor PED74, L1 at a concentration of 1.1×10^3/cm^2. The cheeses were visually checked for fungal growth on a daily basis for three weeks. The experiment was carried out with three different natamycin particles: disc-shaped natamycin particles having a mean particle diameter of 15 μm; grinded disc-shaped natamycin particles for which grinding was stopped when the mean particle diameter was 1.23 μm; and micronised natamycin particles having a mean particle diameter of 0.18 μm. […] As a control, 10 cheeses comprising no natamycin in the coating were analyzed. […]

SMILES	mean particle size (d4,3) ([1]; listed as Disc-shaped natamycin powder)	mean particle size (d4,3) ([1]; listed as disc-shaped natamycin product)	Particle size distribution ([1]; particle size 0-0.2 μm)	Particle size distribution ([1]; particle size 0.2-0.8 μm)	Particle size distribution ([1]; particle size 0.8-2.0 μm)	Particle size distribution ([1]; particle size 2.0-5.0 μm)	Particle size distribution ([1]; particle size 5.0-10.0 μm)	Particle size distribution ([1]; particle size 10.0-50.0 μm)	Particle size distribution ([1]; particle size 50.0-200.0 μm)	sedimentation behaviour ([2]; all pH values (pH 3 to 10), within 24 hours)	time to reach saturation concentration [3]	Protection of cheese against fungal growth ([4]; 150 ppm natamycin in the coating)	Protection of cheese against fungal growth ([4]; 250 ppm natamycin in the coating)	mean particle size (d4,3) ([1]; listed as needle-shaped natamycin product)	mean particle size (d4,3) [1]	volume percentage below the sedimentation front ([2]; pH 4 to 6, after one day)
C[C@@H]1C/C=C/C=C/C=C/C=C/[C@H](O[C@@H]2O[C@H](C)[C@@H](O)[C@H](N)[C@@H]2O)C[C@@H]2O[C@](O)(C[C@@H](O)C[C@H]3O[C@@H]3/C=C/C(=O)O1)C[C@H](O)[C@H]2C(=O)O [Natamycin disc, natamycin]	approximately 15 μm	14.6 μm	0.0 % w/w	0.0 % w/w	0.8 % w/w	18.4 % w/w	32.6 % w/w	47.8 % w/w	0.4 % w/w	completely sediment	approximately 2 hours	16 days	18 days	–	–	–
C[C@@H]1C/C=C/C=C/C=C/C=C/[C@H](O[C@@H]2O[C@H](C)[C@@H](O)[C@H](N)[C@@H]2O)C[C@@H]2O[C@](O)(C[C@@H](O)C[C@H]3O[C@@H]3/C=C/C(=O)O1)C[C@H](O)[C@H]2C(=O)O [Natamycin needle, natamycin]	–	–	10.2 % w/w	7.2 % w/w	10.5 % w/w	24.9 % w/w	31.7 % w/w	15.6 % w/w	0.0 % w/w	–	–	–	–	6.4 μm	–	–
C[C@@H]1[C@H](O)[C@@H](C)/C=C/C=C/CC/C=C/C=C/C=C/C=C/C(O[C@H]2O[C@H](C)[C@@H](O)[C@H](N)[C@@H]2O)CC2O[C@](O)(CC(O)C(O)CCC(O)CC(O)CC(O)CC(=O)O[C@H]1C)CC(O)C2C(=O)O (stereo partly drawn) [Nystatin, nystatin]	–	–	7.4 % w/w	4.4 % w/w	27.2 % w/w	46.7 % w/w	12.2 % w/w	2.1 % w/w	0.0 % w/w	–	–	–	–	–	3.4 μm	around 25%
